Source: US12023336B2, “Antiviral drug compounds and composition thereof” (priority 2018, dated 2024)
Counter-ions that a name gives are not always drawn.

Experiments:
[1] = tested on: different isolates of HIV-1; test: Anti-HIV activity against different isolates of HIV-1 in CEM-GFP cells and hPBMCs, p24 ELISA; format: cell-based
Description: (§1) Cells were then treated with molecules at different concentrations. Untreated cells were taken as negative control and DMSO treated cells were taken as vehicle control.

HIV-1NL4.3 [2] = format: cell-based; settings: for inhibition of replication of HIV-1NL4.3: 100 nM, CEM-GFP (FIG. 9); for TI (Therapeutic index = CC50/IC50) / therapeutic index compared with MTX-HYD / IC50: CEM-GFP cells; for therapeutic index compared with MTX-HYD: HIV-1NL4.3; for IC50: HIV-1NL4.3 0.5 MOI, p24 ELISA 72 h post infection
Description: Cells were then treated with molecules at different concentrations.

HIV-1NL4.3 [3] = tested on: HIV-1NL4.3
Description: 72-hours post infection supernatant was collected and virus production was determined by p24 antigen capture ELISA.
(§2) Cytotoxicity of MTX-HYD and MTX and their analogues was determined by MTT cell proliferation assay kit, (Roche, Germany) as described earlier. Briefly, cells were seeded at the density of 25,000 cells/well in 96 well plate containing 100 μL of RPMI. Molecules at different concentration was added to the media and incubated in humidified CO2 incubator. Untreated cells were taken as negative control and DMSO treated cells were taken as vehicle control. 48-hours post incubation, 10 μL of MTT (5 mg/mL) was added in each well in dark and incubated at 37° C. for the formation of formazan crystals. 4-hours post incubation, the crystals were dissolved using 100 μL isopropanol and the absorbance was read at 570 nm.
as §1

CEM-GFP cells = test: MTT cell viability assay in CEM-GFP cells; format: cell-based; settings: concentration at which cell viability was 50%
Description: (a-b) CEM-GFP cells were treated with different concentrations of MTX-HYD and MTX and cytotoxicity was determined by MTT cell viability assay. […] (c-d) CEM-GFP cells were infected with 0.5 MOI (Multiplicity of infection) of HIV-1NL4.3 virus in presence of MTX-HYD or MTX. 72-hours post infection supernatant was collected and virus production was determined by p24 antigen capture ELISA.
as §2

HIV-1NL4.3 [4] = test: microbe, parasite or virus in culture; format: cell-based; settings: 10 μM, HIV-1NL4.3 0.1 MOI, TZM-bl cells, luminescence 48 h; for inhibition at 10 µM: Human immunodeficiency virus 1, read-out: % Inhibition at 10 μM Concentration
Description: TZM-bl cells were seeded at the density of 12,000-15,000 cells/well of 96 well plate with 100 μL DMEM (with 10% FBS) in each well. 12-hours post seeding, the media was replaced with fresh DMEM containing HTV-1NL4.3 at 0.1 MOI and cells were treated with different molecules independently at 10 μM working concentration. Cells were incubated in humidified CO2 incubator for 4-hours. After incubation, the media was replaced and cells were washed twice with incomplete DMEM and 100 μL of complete DMEM was added in each wells along with the molecules of interest and incubated at 37° C. in humidified CO2 incubator. 48-hours post incubation, the media was removed and cells were washed twice with 100 μL of 1×PBS. After washing, cells were lysed using cell culture lysis reagent and Steady-Glo substrate was added at 1:1 ration in each well. Luminescence was measured using Molecular Devices M5 (Table 2). % Inhibition was calculated using following formula and plotted.
[formula] (RLU=Relative Luminescence Unit)

`[2H]C([2H])([2H])N(Cc1cnc2nc(N)nc(N)c2n1)c1ccc(C(=O)NC(CCC(=O)OC)C(=O)OC)cc1` (stereo not drawn) [MTX-methyl-d3-Dimethyl Ester, Methotrexate-methyl-d3-Dimethyl ester] was tested, and the “anti-HIV activity across virus isolates” value ([1]; 25 nM, 0.5 MOI of different isolates) was “not virus isolate specific phenomena”, the “Therapeutic Index compared with MTX-HYD, other virus isolates” value ([1]; HIV-1IndieC, HIV-1IIIB, HIV-1ADA, HIV-189.6) was “higher Therapeutic Index (TI) than Methotrexate Hydrate (MTX-HYD)” and the “inhibition of replication of HIV-1NL4.3” value (HIV-1NL4.3 [2]) was “inhibits replication of HIV-1NL4.3”. The “TI (Therapeutic index = CC50/IC50)” value (HIV-1NL4.3 [2]) was 4781.81, the “therapeutic index compared with MTX-HYD” value (HIV-1NL4.3 [2]) was “higher therapeutic index than MTX-HYD” and the “therapeutic index (TI) in hPBMCs” value (HIV-1NL4.3 [3]; HIV-1NL4.3 0.5 MOI) was “significantly high therapeutic index (TI)”. The “inhibition of HIV-1NL4.3 replication in primary cells” value (HIV-1NL4.3 [3]; hPBMCs) was “with high efficiency”.
`COC(=O)CC[C@H](NC(=O)c1ccc(N(C)Cc2cnc3nc(N)nc(N)c3n2)cc1)C(=O)OC` [MTX Dimethyl Ester] was tested, and the “inhibition of replication of HIV-1NL4.3” value (HIV-1NL4.3 [2]) was “inhibits replication of HIV-1NL4.3”, the “TI (Therapeutic index = CC50/IC50)” value (HIV-1NL4.3 [2]) was 1675.3 and the “therapeutic index compared with MTX-HYD” value (HIV-1NL4.3 [2]) was “higher therapeutic index than MTX-HYD”. For the same compound, the IC50 (HIV-1NL4.3 [2]) was 0.0324 ± 0.00087 µM and the CC50 (CEM-GFP cells) was 54.3 ± 3.78 µM.
In the case of MTX-d3 heptaglutamate, the IC50 (HIV-1NL4.3 [2]) is reported as 0.0779 ± 0.00242 µM and the CC50 (CEM-GFP cells) is reported as 40.5 ± 3.43 µM.
With `[2H]C([2H])([2H])N(Cc1cnc2nc(N)nc(N)c2n1)c1ccc(C(=O)N[C@@H](CCC(=O)O)C(=O)O)cc1` [MTX-methyl-d3] the “inhibition of replication of HIV-1NL4.3” value (HIV-1NL4.3 [2]) was “inhibits replication of HIV-1NL4.3”.
Compound `CC[N+](CC)(CC)CCOc1ccc(/C=C/c2ccccc2)cc1` [MG 624] has an inhibition at 10 µM (HIV-1NL4.3 [4]) of 97.1%.
`NC(=O)CN1CC(O)CC1=O` (stereo not drawn) [Oxiracetam] gave an inhibition at 10 µM (HIV-1NL4.3 [4]) of 96.5%.
With `O=c1oc(Cl)c(Cl)c2ccccc12` [Dichloroisocoumarin] the “% Inhibition at 10 μM Concentration” value (HIV-1NL4.3 [4]) was 97.06%.
With `O=[N+]([O-])/C=C/c1ccc2c(c1)OCO2` [MNS] the “% Inhibition at 10 μM Concentration” value (HIV-1NL4.3 [4]) was 99.63%.
With `CC(C)[C@H]1c2ccc(F)cc2CC[C@@]1(CCN(C)CCCc1nc2ccccc2[nH]1)OC(=O)C1CC1` [NNC 55-0396] the “% Inhibition at 10 μM Concentration” value (HIV-1NL4.3 [4]) was 97.75%.
For `CNCCNS(=O)(=O)c1cccc2cnccc12.Cl.Cl` [H-8 dihydrochloride], the “% Inhibition at 10 μM Concentration” value (HIV-1NL4.3 [4]) was 99.57%.
`O=C1c2c(O)ccc(O)c2C(=O)c2c(NCCNCCO)ccc(NCCNCCO)c21` [Mitoxantrone] gave an inhibition at 10 µM (HIV-1NL4.3 [4]) of 97.1%.
In the case of `Cc1ccc(S(=O)(=O)N[C@@H](Cc2ccccc2)C(=O)CCl)cc1` [N-p-Tosyl-L-phenylalanine chloromethyl ketone], the “% Inhibition at 10 μM Concentration” value (HIV-1NL4.3 [4]) is reported as 98.76%.
In the case of `COC(=O)C1=C(C)NC(C)=C(C(=O)OCCN(C)Cc2ccccc2)C1c1cccc([N+](=O)[O-])c1` (stereo not drawn) [Nicardipine hydrochloride], the inhibition at 10 µM (HIV-1NL4.3 [4]) is reported as 99.6%.
In the case of `Nc1nc2c(ncn2CCOCP(=O)(O)O)c(=O)[nH]1` [PMEG hydrate], the “% Inhibition at 10 μM Concentration” value (HIV-1NL4.3 [4]) is reported as 99.36%.
`CCN(CC)CCCC(C)Nc1c2ccc(Cl)cc2nc2ccc(OC)cc12` (stereo not drawn) [Quinacrine dihydrochloride] was tested, and the inhibition at 10 µM (HIV-1NL4.3 [4]) was 100%.
In the case of `CN(Cc1cnc2nc(N)nc(N)c2n1)c1ccc(C(=O)N[C@@H](CCC(=O)N[C@@H](CCC(=O)N[C@@H](CCC(=O)N[C@@H](CCC(=O)N[C@@H](CCC(=O)N[C@@H](CCC(=O)N[C@@H](CCC(=O)O)C(=O)O)C(=O)O)C(=O)O)C(=O)O)C(=O)O)C(=O)O)C(=O)O)cc1` [MTX heptaglutamate], the “TI (Therapeutic index = CC50/IC50)” value (HIV-1NL4.3 [2]) is reported as 541.87, the IC50 (HIV-1NL4.3 [2]) is reported as 0.0737 ± 0.00165 µM and the CC50 (CEM-GFP cells) is reported as 39.9 ± 1 µM.
With `Cl.NCCCC(N)(C(=O)O)C(F)F` (racemic) [DL-alpha-Difluoromethylornithine hydrochloride] the “% Inhibition at 10 μM Concentration” value (HIV-1NL4.3 [4]) was 97.06%.
With `OCCN1CCN(CCCN2c3ccccc3Sc3ccc(Cl)cc32)CC1` [Perphenazine] the inhibition at 10 µM (HIV-1NL4.3 [4]) was 99.6%.
`CS(=O)(=O)c1cccc(CNc2nc(Nc3ccc4c(c3)CCC(=O)N4)ncc2C(F)(F)F)c1` [PF-573228] was tested, and the “% Inhibition at 10 μM Concentration” value (HIV-1NL4.3 [4]) was 97.23%.
With `CC1=C(/C=C/C(C)=C/C=C/C(C)=C/C(=O)Nc2ccc(O)cc2)C(C)(C)CCC1` [Retinoic acid p-hydroxyanilide] the “% Inhibition at 10 μM Concentration” value (HIV-1NL4.3 [4]) was 98.52%.
For `CCCCc1ncc(/C=C(\Cc2cccs2)C(=O)O)n1Cc1ccc(C(=O)O)cc1` [Eprosartan mesylate], the inhibition at 10 µM (HIV-1NL4.3 [4]) was 99.8%.
`CCN(CC)CCOc1ccc(Nc2ncc3cc(-c4c(Cl)cccc4Cl)c(=O)n(C)c3n2)cc1` [PD-166285 hydrate] showed an inhibition at 10 µM (HIV-1NL4.3 [4]) of 97%.
In the case of `COC(=O)CCC(NC(=O)c1ccc(N(C)Cc2cnc3nc(N)nc(N)c3n2)cc1)C(=O)OC` (stereo not drawn) [MTX-methyl-d3-Dimethyl Ester, Methotrexate-methyl-d3-Dimethyl ester], the IC50 (HIV-1NL4.3 [2]) is reported as 0.0099 ± 0.00151 µM and the CC50 (CEM-GFP cells) is reported as 47.3 ± 1.51 µM.
`Cn1c(=O)c(-c2c(Cl)cccc2Cl)cc2cnc(Nc3ccc(N4CCOCC4)cc3)nc21` [PD173952] was tested, and the “% Inhibition at 10 μM Concentration” value (HIV-1NL4.3 [4]) was 96.16%.
`CN[C@@H]1C[C@@H](c2ccc(Cl)c(Cl)c2)c2ccccc21` [Indatraline hydrochloride] was tested, and the inhibition at 10 µM (HIV-1NL4.3 [4]) was 97.4%.
`N=C(N)N/N=C/c1c(Cl)cccc1Cl` [Guanabenz acetate] was tested, and the inhibition at 10 µM (HIV-1NL4.3 [4]) was 99.6%.
For `CCCN1CCC[C@@H](c2cccc(O)c2)C1.Cl` [S(−)-3PPP hydrochloride], the “% Inhibition at 10 μM Concentration” value (HIV-1NL4.3 [4]) was 98.60%.
For `CN(Cc1cnc2nc(N)nc(N)c2n1)c1ccc(C(=O)N[C@@H](CCC(=O)O)C(=O)O)cc1` [MTX-methyl-d3], the IC50 (HIV-1NL4.3 [2]) was 0.0421 ± 0.00384 µM and the CC50 (CEM-GFP cells) was 46.4 ± 1.08 µM.
`CC(C)NC[C@@H](O)c1ccc(O)c(O)c1.O=C(O)C(O)C(O)C(=O)O` [S(+)-Isoproterenol (+)-bitartrate] was tested, and the “% Inhibition at 10 μM Concentration” value (HIV-1NL4.3 [4]) was 97.10%.
`CC1=NN=C(c2ccc(N)cc2)c2cc3c(cc2C1)OCO3` [GYKI 52466 hydrochloride] gave an inhibition at 10 µM (HIV-1NL4.3 [4]) of 99.3%.
